In patent US12565501B2, “Muscarinic acetylcholine M1 receptor antagonists” (Contineum Therapeutics, Inc., priority 2019, dated 2026) one finds IC50 data, which are given here for 30 compounds.

Usually IC50 stands for the midpoint of a concentration-inhibition curve.

Some results are limits rather than exact numbers.

This assay deals with T1, human M1 receptor (Homo sapiens, UniProt P11229).
T1 sequence (P11229 1-460): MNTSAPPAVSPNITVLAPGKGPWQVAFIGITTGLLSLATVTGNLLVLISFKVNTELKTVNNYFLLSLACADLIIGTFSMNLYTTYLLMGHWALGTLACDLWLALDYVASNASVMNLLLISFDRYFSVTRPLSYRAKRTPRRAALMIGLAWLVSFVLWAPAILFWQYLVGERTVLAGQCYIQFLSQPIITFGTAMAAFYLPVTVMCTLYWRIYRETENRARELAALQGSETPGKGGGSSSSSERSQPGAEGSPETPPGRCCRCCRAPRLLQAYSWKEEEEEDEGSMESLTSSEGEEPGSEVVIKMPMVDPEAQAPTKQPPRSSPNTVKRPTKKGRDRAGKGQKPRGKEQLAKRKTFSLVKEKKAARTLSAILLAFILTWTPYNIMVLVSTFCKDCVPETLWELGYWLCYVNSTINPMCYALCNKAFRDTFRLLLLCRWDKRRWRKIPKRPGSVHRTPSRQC
Put plainly: In vitro functional assay of muscarinic acetylcholine receptor activity (aequorin calcium flux, reversal of EC80 acetylcholine response). In kind it is cell-based. The note with it: CHO-K1 cells stably expressing human M1 receptor with aequorin; acetylcholine at EC80; calcium flux (luminescence); read-out: M1 IC50. An outline of the steps: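 CHO-K1 cells expressing human M1 and aequorin, loaded with 5 μM coelenterazine for 4 h, preincubated with compound 30 min at room temperature, then challenged with EC80 acetylcholine.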
In general terms: A change in cytosolic calcium serves as a functional read-out for many receptors and channels.
For the compound `CC(C)(OCC(=O)N1CC2CCC(C1)N2c1ccc(C#N)cn1)c1cccc2ncnn12` (racemic) [Example 203, 6-(3-(2-((2-([1,2,4]triazolo[1,5-a]pyridin-5-yl)propan-2-yl)oxy)acetyl)-3,8-diazabicyclo[3.2.1]octan-8-yl)nicotinonitrile], the IC50 is 100 to 1000 nM.
On to `N#Cc1ccc(N2C3CCC2CN(C(=O)CNC2(c4ccc(F)cc4F)CC2)C3)cc1` [Example 85, 4-(3-((1-(2,4-difluorophenyl)cyclopropyl)glycyl)-3,8-diazabicyclo[3.2.1]octan-8-yl)benzonitrile], for which the IC50 is 10 to 100 nM.
For `COc1cccc(C2(NCCC(=O)N3CC4CCC(C3)N4c3ccc(C#N)cn3)CC2)c1` [Example 16, 6-(3-(3-((1-(3-methoxyphenyl)cyclopropyl)amino)propanoyl)-3,8-diazabicyclo[3.2.1]octan-8-yl)nicotinonitrile], the IC50 lay in the range of 10 to 100 nM.
On to `COc1cncc(C(F)(F)/C=C/C(=O)N2CC3CCC(C2)N3c2ccc(C#N)cn2)c1` [Example 142, 6-(3-((E)-4,4-difluoro-4-(5-methoxypyridin-3-yl)but-2-enoyl)-3,8-diazabicyclo[3.2.1]octan-8-yl)nicotinonitrile], for which the IC50 is less than 10 nM.
On to `CC(NCCC(=O)N1C[C@H]2CC[C@@H](C1)N2c1ccc(C#N)cn1)c1cccc2ncsc12` (mixture of isomers) [Example 51, 6-(3-(3-((1-(benzo[d]thiazol-7-yl)ethyl)amino)propanoyl)-3,8-diazabicyclo[3.2.1]octan-8-yl)nicotinonitrile], for which the IC50 lay within 10 to 100 nM.
`CC(OCC(=O)N1CC2CCC(C1)N2c1ccc(C#N)cn1)c1ccc(C(F)(F)F)nc1` (racemic) [Example 190, 6-(3-(2-(1-(6-(trifluoromethyl)pyridin-3-yl)ethoxy)acetyl)-3,8-diazabicyclo[3.2.1]octan-8-yl)nicotinonitrile]: the IC50 is more than 1000 nM.
In the case of `CC(c1ccccc1)[S+]([O-])CC(=O)N1CC2CCC(C1)N2c1ccc(C#N)cn1` (racemic) [Example 168, 6-(3-(2-((1-phenylethyl)sulfinyl)acetyl)-3,8-diazabicyclo[3.2.1]octan-8-yl)nicotinonitrile], the half-maximal inhibitory concentration (IC50) fell in the range of 1000 to 10000 nM.
For `N#Cc1ccc(N2C3CCC2CN(C(=O)CNC(c2ccc(F)cc2F)C(F)F)C3)nc1` (racemic) [Example 128, 6-(3-((1-(2.4-difluorophenyl)-2,2-difluoroethyl)glycyl)-3,8-diazabicyclo[3.2.1]octan-8-yl)nicotinonitrile], the IC50 is 10 to 100 nM.
As for `COc1cc(C2(/C=C/C(=O)N3CC4CCC(C3)N4c3ccc(C#N)cn3)CCC2)ccn1` [Example 151, 6-(3-((E)-3-(1-(2-methoxypyridin-4-yl)cyclobutyl)acryloyl)-3,8-diazabicyclo[3.2.1]octan-8-yl)nicotinonitrile], the IC50 is less than 10 nM.
Consider `N#Cc1ccc(N2C3CCC2CN(C(=O)CCNC2(c4cc(Cl)cc(C#N)c4)CC2)C3)nc1` [Example 289, 6-(3-(3-((1-(3-chloro-5-cyanophenyl)cyclopropyl)amino)propanoyl)-3,8-diazabicyclo[3.2.1]octan-8-yl)nicotinonitrile], for which the IC50 lay in the range of 100 to 1000 nM.
Regarding `COc1ccc(C2(OCC(=O)N3CC4CCC(C3)N4c3ccc(C#N)cn3)CC2)cc1OC` [Example 225, 6-(3-(2-(1-(3,4-dimethoxyphenyl)cyclopropoxy)acetyl)-3,8-diazabicyclo[3.2.1]octan-8-yl)nicotinonitrile], the IC50 fell in the range of 100 to 1000 nM.
For the compound `COc1ccc(F)c(C2(NCC(=O)N3CC4CCC(C3)N4c3ccc(C#N)cn3)CC2)c1` [Example 111, 6-(3-((1-(2-fluoro-5-methoxyphenyl)cyclopropyl)glycyl)-3,8-diazabicyclo[3.2.1]octan-8-yl)nicotinonitrile], the IC50 was less than 10 nM.
On to `N#Cc1ccc(N2C3CCC2CN(C(=O)CCC(F)(F)c2cccc4ncccc24)C3)nc1` [Example 122, 6-(3-(4,4-difluoro-4-(quinolin-5-yl)butanoyl)-3,8-diazabicyclo[3.2.1]octan-8-yl)nicotinonitrile], for which the IC50 was less than 10 nM.
On to `COc1cc(C(F)(F)CCC(=O)N2CC3CCC(C2)N3c2ccc(C)nn2)ccn1` [Example 157, 4,4-difluoro-4-(2-methoxypyridin-4-yl)-1-(8-(6-methylpyridazin-3-yl)-3,8-diazabicyclo[3.2.1]octan-3-yl)butan-1-one], for which the IC50 was in the range of 100 to 1000 nM.
`N#Cc1ccc(N2[C@@H]3CC[C@H]2CN(C(=O)CCNC2(c4ccccn4)CC2)C3)nc1` [Example 18, 6-(3-(3-((1-(pyridin-2-yl)cyclopropyl)amino)propanoyl)-3,8-diazabicyclo[3.2.1]octan-8-yl)nicotinonitrile]: the IC50 is 1000 to 10000 nM.
The same measure for `N#Cc1ccc(N2C[C@H]3C[C@@H]2CN3C(=O)COC2(c3ccc(F)c(F)c3)CC2)nc1` [Example 285, 6-((1R,4R)-5-(2-(1-(3,4-difluorophenyl)cyclopropoxy)acetyl)-2,5-diazabicyclo[2.2.1]heptan-2-yl)nicotinonitrile]: more than 1000 nM; for `CC(C)(O)C(NCCC(=O)N1C[C@H]2CC[C@@H](C1)N2c1ccc(C#N)cn1)c1ccccc1` (mixture of isomers) [Example 49, 6-(3-(3-((2-hydroxy-2-methyl-1-phenylpropyl)amino)propanoyl)-3,8-diazabicyclo[3.2.1]octan-8-yl)nicotinonitrile]: 1000 to 10000 nM.
Regarding `CC(OCCC(=O)N1CC2CCC(C1)N2c1ccc(C#N)cn1)c1cccc2ncnn12` (racemic) [Example 308, 6-(3-(3-(1-([1,2,4]triazolo[1,5-a]pyridin-5-yl)ethoxy)propanoyl)-3,8-diazabicyclo[3.2.1]octan-8-yl)nicotinonitrile], the half-inhibitory concentration (IC50) was less than 10 nM.
As for `COc1ccnc(C2(OCC(=O)N3CC4CCC(C3)N4c3ccc(C#N)cn3)CCC2)n1` [Example 264, 6-(3-(2-(1-(4-methoxypyrimidin-2-yl)cyclobutoxy)acetyl)-3,8-diazabicyclo[3.2.1]octan-8-yl)nicotinonitrile], the IC50 is less than 10 nM.
Consider `N#Cc1ccc(N2[C@@H]3CC[C@H]2CN(C(=O)CCNC2(c4cccc5ncccc45)CC2)C3)nc1` [Example 27, 6-(3-(3-((1-(quinolin-5-yl)cyclopropyl)amino)propanoyl)-3,8-diazabicyclo[3.2.1]octan-8-yl)nicotinonitrile], for which the IC50 is less than 10 nM.
Turning to `N#Cc1ccc(N2C3CCC2CN(C(=O)COC2(c4ccccc4)CC2)C3)nc1` [Example 180, 6-(3-(2-(1-phenylcyclopropoxy)acetyl)-3,8-diazabicyclo[3.2.1]octan-8-yl)nicotinonitrile], the IC50 was 10 to 100 nM.
In the case of `N#Cc1ccc(N2[C@@H]3CC[C@H]2CN(C(=O)CCNC2(c4ncccc4F)CC2)C3)nc1` [Example 20, 6-(3-(3-((1-(3-fluoropyridin-2-yl)cyclopropyl)amino)propanoyl)-3,8-diazabicyclo[3.2.1]octan-8-yl)nicotinonitrile], the IC50 is 1000 to 10000 nM.
`COc1cncc(C2(OCC(=O)N3CC4CCC(C3)N4c3ccc(C#N)cn3)COC2)c1` [Example 243, 6-(3-(2-((3-(5-methoxypyridin-3-yl)oxetan-3-yl)oxy)acetyl)-3,8-diazabicyclo [3.2.1]octan-8-yl)nicotinonitrile]: the IC50 lay in the range of 100 to 1000 nM.
As to `N#Cc1ccc(N2C[C@@H]3CC[C@H]2CN3C(=O)COC2(c3ccc(F)c(F)c3)CC2)nc1` [Example 283, 6-((1S,4S)-5-(2-(1-(3,4-difluorophenyl)cyclopropoxy)acetyl)-2,5-diazabicyclo[2.2.2]octan-2-yl)nicotinonitrile], the IC50 was 100 to 1000 nM.
As to `COc1ccc(F)c(C2(NCC(=O)N3CC4CCC(C3)N4c3ccc(C#N)cn3)CCC2)c1` [Example 116, 6-(3-((1-(2-fluoro-5-methoxyphenyl)cyclobutyl)glycyl)-3,8-diazabicyclo[3.2.1]octan-8-yl)nicotinonitrile], the half-maximal inhibitory concentration (IC50) is 10 to 100 nM.
Turning to `N#Cc1ccc(N2C3COCC2CN(C(=O)COC2(c4ccc(F)c(F)c4)CC2)C3)nc1` [Example 279, 6-(7-(2-(1-(3,4-difluorophenyl)cyclopropoxy)acetyl)-3-oxa-7,9-diazabicyclo[3.3.1]nonan-9-yl)nicotinonitrile], the IC50 fell in the range of 1000 to 10000 nM.
As to `Cn1c(C2(OCC(=O)N3CC4CCC(C3)N4c3ccc(C#N)cn3)CCC2)cccc1=O` [Example 299, 6-(3-(2-(1-(1-methyl-6-oxo-1,6-dihydropyridin-2-yl)cyclobutoxy)acetyl)-3,8-diazabicyclo[3.2.1]octan-8-yl)nicotinonitrile], the IC50 fell in the range of 10 to 100 nM.
On to `N#Cc1ccc(N2C3CCC2CN(C(=O)CCNC(CO)c2ccc(F)cc2)C3)nc1` [Example 131, 6-((3-(3-(((S)1-(4-fluorophenyl)-2-hydroxyethyl)amino)propanoyl)-3,8-diazabicyclo[3.2.1]octan-8-yl)nicotinonitrile], for which the IC50 was in the range of 1000 to 10000 nM.
`N#Cc1ccc(N2[C@@H]3CC[C@H]2CN(C(=O)CCNC2(c4cc(F)cc(F)c4)CC2)C3)nc1` [Example 33, 6-(3-(3-((1-(3,5-difluorophenyl)cyclopropyl)amino)propanoyl)-3,8-diazabicyclo[3.2.1]octan-8-yl)nicotinonitrile]: the half-maximal inhibitory concentration (IC50) was 10 to 100 nM.
The same measure for `COc1cccc(C2(OCC(=O)N3CC4CCC(C3)N4c3ccc(C#N)cn3)COC2)c1` [Example 242, (3-(2-((3-(3-methoxyphenyl)oxetan-3-yl)oxy)acetyl)-3,8-diazabicyclo[3.2.1]octan-8-yl)nicotinonitrile]: 10 to 100 nM.
